Where two headings read alike, the source gives them in different places.
What was measured:
[1] = tested on: Western Flower Thrips (Frankliniella occidentalis (Pergande)); experiment: Test C: control of Western Flower Thrips on Soleil bean plant, spray, contact and/or systemic; format: in vivo; conditions: sprayed at 250 ppm, adult thrips, held 6 days
Protocol: (§1) Test compounds were formulated using a solution containing 10% acetone, 90% water and 300 ppm X-77® Spreader Lo-Foam Formula non-ionic surfactant containing alkylarylpolyoxyethylene, free fatty acids, glycols and isopropanol (Loveland Industries, Inc. Greeley, Colo., USA). The formulated compounds were applied in 1 mL of liquid through a SUJ2 atomizer nozzle with ⅛ JJ custom body (Spraying Systems Co. Wheaton, Ill., USA) positioned 1.27 cm (0.5 inches) above the top of each test unit. Test compounds were sprayed at the rates indicated, and each test was replicated three times.
For evaluating control of the Western Flower Thrips (Frankliniella occidentalis (Pergande)) through contact and/or systemic means, the test unit consisted of a small open container with a 5-7-day-old Soleil bean plant inside.
Test compounds were formulated and sprayed at 250 ppm. After spraying, the test units were allowed to dry for 1 hour, and then 22-27 adult thrips were added to each unit. A black, screened cap was placed on top, and the test units were held for 6 days at 25° C. and 45-55% relative humidity.

[2] = tested on: green peach aphid (Myzus persicae (Sulzer)); experiment: Test A: control of green peach aphid on radish plant, spray, contact and/or systemic; format: in vivo; conditions: 144 h, assessed after 6 days; for mortality at 50 ppm: sprayed at 50 ppm; for mortality at 250 ppm: sprayed at 250 ppm
Protocol: as §1
For evaluating control of green peach aphid (Myzus persicae (Sulzer)) through contact and/or systemic means, the test unit consisted of a small open container with a 12-15-day-old radish plant inside. This was pre-infested by placing on a leaf of the test plant 30-40 aphids on a piece of leaf excised from a culture plant (cut-leaf method). The aphids moved onto the test plant as the leaf piece desiccated. After pre-infestation, the soil of the test unit was covered with a layer of sand.
Test compounds were formulated and sprayed at 250 and/or 50 ppm. After spraying of the formulated test compound, each test unit was allowed to dry for 1 hour and then a black, screened cap was placed on top. The test units were held for 6 days in a growth chamber at 19-21° C. and 50-70% relative humidity. Each test unit was then visually assessed for insect mortality.

[3] = tested on: cotton melon aphid (Aphis gossypii (Glover)); experiment: Test B: control of cotton melon aphid on cotton plant, spray, contact and/or systemic; format: in vivo; conditions: 144 h
Protocol: as §1
For evaluating control of cotton melon aphid (Aphis gossypii (Glover)) through contact and/or systemic means, the test unit consisted of a small open container with a 6-7-day-old cotton plant inside. This was pre-infested with 30-40 insects on a piece of leaf according to the cut-leaf method, and the soil of the test unit was covered with a layer of sand.
Test compounds were formulated and sprayed at 250 and/or 50 ppm. After spraying, the test units were maintained in a growth chamber for 6 days at 19° C. and 70% relative humidity. Each test unit was then visually assessed for insect mortality.

[4] = tested on: sweetpotato whitefly (Bemisia tabaci (Gennadius)); experiment: Test D: control of sweetpotato whitefly on cotton plant, spray, contact and/or systemic; format: in vivo; conditions: 312 h, sprayed at 250 ppm, cotton plant infested with eggs, assessed after 13 days
Protocol: as §1
For evaluating control of the sweetpotato whitefly (Bemisia tabaci (Gennadius)) through contact and/or systemic means, the test unit consisted of a small open container with a 12-14-day-old cotton plant inside. Prior to the spray application, both cotyledons were removed from the plant, leaving one true leaf for the assay. Adult whiteflies were allowed to lay eggs on the plant and then were removed from the test unit. Cotton plants infested with at least 15 eggs were submitted to the test for spraying.
Test compounds were formulated and sprayed at 250 and/or 50 ppm. After spraying, the test units were allowed to dry for 1 hour. […] Each test unit was then visually assessed for insect mortality.

[5] = sprayed at 250 ppm, cotton plant, assessed after 6 days, read-out: mortality

In the case of “2,4,6,7-tetrahydro-2-(3-pyridinyl)-N-(2,2,2-trifluoromethyl)-5H-pyrazolo[4,3-c]pyridine-5-carboxamide [Compound 15]”, the “control efficacy (30% or less plant damage and/or 100% mortality)” value [1] is reported as “very good to excellent levels of control efficacy”.

For `COC(=O)NNC(=O)N1CCc2nn(-c3cccnc3)cc2C1` [Compound 10, 2,4,6,7-tetrahydro-2-(3-pyridinyl)-5H-pyrazolo[4,3-c]pyridine-5-carboxylic acid, 2-(methoxycarbonyl)hydrazide], the “control efficacy (30% or less plant damage and/or 100% mortality)” value [1] was “very good to excellent levels of control efficacy”, the mortality at 50 ppm [2] was no less than 80% and the mortality at 250 ppm [2] was no less than 80%.

With `COC(CN(C)C(=O)N1CCc2nn(-c3cccnc3)cc2C1)OC` [Compound 14, 2,4,6,7-tetrahydro-N-methyl-2-(3-pyridinyl)-N-(2,2-dimethoxyethyl)-5H-pyrazolo[4,3-c]pyridine-5-carboxamide] the mortality at 50 ppm [2] was no less than 80% and the mortality at 250 ppm [2] was no less than 80%.

With `FC(F)(F)c1ccc(N2CCc3nn(-c4cccnc4)cc3C2)nc1` [Compound 19] the “control efficacy (30% or less plant damage and/or 100% mortality)” value [1] was “very good to excellent levels of control efficacy”.

In the case of `FC(F)(F)c1cc(N2CCc3nn(-c4cccnc4)cc3C2)ccn1` [Compound 20, 4,5,6,7-tetrahydro-2-(3-pyridinyl)-5-[2-(trifluoromethyl)-4-pyridinyl]-2H-pyrazolo[4,3-c]pyridine], the “control efficacy (30% or less plant damage and/or 100% mortality)” value [1] is reported as “very good to excellent levels of control efficacy”, the mortality at 50 ppm [2] is reported as no less than 80% and the mortality at 250 ppm [2] is reported as no less than 80%.

With `O=C(CCSCC(F)(F)F)N1CCc2nn(-c3cccnc3)cc2C1` [Compound 22, 1-[2,4,6,7-tetrahydro-2-(3-pyridinyl)-5H-pyrazolo[4,3-c]pyridin-5-yl]-3-[(2,2,2-trifluoroethyl)thio]-1-propanone] the mortality at 250 ppm [3, 5] was no less than 80%, the “control efficacy (30% or less plant damage and/or 100% mortality)” value [1] was “very good to excellent levels of control efficacy” and the mortality at 250 ppm [2] was no less than 80%.

In the case of `O=C(CC[S+]([O-])CC(F)(F)F)N1CCc2nn(-c3cccnc3)cc2C1` (stereo not shown) [Compound 23, 1-[2,4,6,7-tetrahydro-2-(3-pyridinyl)-5H-pyrazolo[4,3-c]pyridin-5-yl]-3-[(2,2,2-trifluoroethyl)sulfinyl]-1-propanone], the mortality at 250 ppm [3, 5] is reported as no less than 80%, the “control efficacy (30% or less plant damage and/or 100% mortality)” value [1] is reported as “very good to excellent levels of control efficacy” and the mortality at 250 ppm [2] is reported as no less than 80%.

Work on `O=C(NCC(F)(F)F)N1CCc2nn(-c3cccnc3)cc2C1` [Compound 28] yielded a melting point of 118.3 to 155.3 °C.

Molecule `CNC(=O)N1CCc2nn(-c3cccnc3)cc2C1` [Compound 29] has a melting point of 212 to 224.2 °C.

With `CCNC(=O)N1CCc2nn(-c3cccnc3)cc2C1` [Compound 31] the melting point was 151.1 to 170.5 °C.

Work on `COC1CC(NC(=O)N2CCc3nn(-c4cccnc4)cc3C2)C1` (stereo not shown) [Compound 47, 2,4,6,7-tetrahydro-N-(3-methoxycyclobutyl)-2-(3-pyridinyl)-5H-pyrazolo[4,3-c]pyridine-5-carboxamide] yielded a mortality at 250 ppm [3, 5] of no less than 80%.

Work on `c1cncc(-n2cc3c(n2)CCN(c2cnccn2)C3)c1` [Compound 48, 4,5,6,7-tetrahydro-2-(3-pyridinyl)-5-(2-pyrazinyl)-2H-pyrazolo[4,3-c]pyridine] yielded a mortality at 250 ppm [3, 5] of no less than 80%.

`c1ccc(N2CCc3nn(-c4cccnc4)cc3C2)nc1` [Compound 49] gave a melting point of 117 to 125.1 °C.

With `CN(C)C(=O)OCC(=O)N1CCc2nn(-c3cccnc3)cc2C1` [Compound 51, 2-oxo-2-[2,4,6,7-tetrahydro-2-(3-pyridinyl)-5H-pyrazolo[4,3-c]pyridin-5-yl]ethyl N,N-dimethylcarbamate] the mortality at 250 ppm [3] was no less than 80%.

With `c1cncc(N2CCc3nn(-c4cccnc4)cc3C2)c1` [Compound 52] the mortality at 250 ppm [4] was no less than 50% and the mortality at 250 ppm [2] was no less than 80%.

`N#CCC(=O)N1CCc2nn(-c3cccnc3)cc2C1` [Compound 54, 2,4,6,7-tetrahydro-β-oxo-2-(3-pyridinyl)-5H-pyrazolo[4,3-c]pyridine-5-propanenitrile] gave a mortality at 250 ppm [3, 5] of no less than 80%, a mortality at 250 ppm [4] of no less than 50% and a mortality at 250 ppm [2] of no less than 80%.
